Laboratory results: US20240247031A1, “COMPOSITION FOR TREATING CANCER CONTAINING TELOMERASE-TARGETING GNRH ANTAGONIST-DERIVED PEPTIDE HS1002” (Research & Business Foundation Sungkyunkwan University, priority 2023, published 2024)

How the values were obtained:
DU145 = assay: MTT cytotoxicity on various cancer cells (Table 1); format: cell-based, human; conditions: prostate cancer cell line DU145; MTT, 48 h
Method: (§1) To evaluate anticancer activities of the produced peptides on various types of cancer cells, MTT analysis was performed. Human prostate cancer cell lines (LNCaP, PC3, and DU145), human breast cancer cell lines (MDA-MB-231 and MCF-7), lung cancer cell line (A549), and ovarian cancer cell line (SKOV3) were cultured in RPMI media supplemented with 1% penicillin/streptomycin and 1% fetal bovine serum (all from Life Technologies, Grand Island, NY). The cells were seeded in 96-well plates containing 100 μL of growth media for 24 h. The media were removed, and then 100 μL of the peptide (solvent DPBS) at each concentration was added to each well and incubated at 37° C. for 48 h. After incubation for 48 h, 100 μL of MTT reagent was added to each well. The cells were incubated at 37° C. for 4 h, and then the supernatant was removed. Formazan crystals were dissolved in 100 μL of DMSO with gentle stirring at 37° C. for 10 min. The absorbance per well was measured at 540 nm using a VERSA max microplate reader (Molecular Devices Corp.).

PC3 = assay: MTT cytotoxicity on various cancer cells (Table 1); format: cell-based, human; conditions: prostate cancer cell line PC3; MTT, 48 h
Method: as §1

[1] = system: c-Myc, AKT, ERK1/2 in LNCaP tumor xenografts; assay: Western blot of c-Myc and signaling proteins in LNCaP-xenografted tumors (FIG. 14); format: in vivo, mouse; conditions: LNCaP xenograft; HS1002 1 mg/kg/day, LA 0.1 mg/kg/day s.c.
Method: The cells and tumor tissues were homogenized using the PRO-PREP™ extraction solution (iNtRON Biotechnology, Seongnam, Korea). After incubation, the homogenate was centrifuged at 16,000×g for 20 min at 4° C., and the supernatant was collected for western blot analysis. Subsequently, an equivalent quantity of protein was separated using sodium dodecyl sulfate polyacrylamide gels and transferred onto a polyvinylidene difluoride (PVDF) membrane. The PVDF membranes were incubated with the primary antibodies overnight at 4° C., washed with tris-buffered saline, and then incubated with HRP-conjugated anti-mouse or anti-rabbit antibodies. The bands were visualized using a ChemiDoc imaging system (Bio-Rad, Hercules, CA, USA). The band intensities were determined using an Image J software.
All mice were purchased from Central Lab Animal Inc. ([…]). They were raised in a 12 h environmental light/dark cycle with controlled temperature (22±2° C.) conditions. The experimental protocol was approved by the Sungkyunkwan University Institutional Animal Care and Use Committee (SKKUIACUC2021-06-27-1, SKKUIACUC2023-01-07-1). For the establishment of tumors, LNCaP (1×10^7), MC38 (2×10^5), and 4T1 (1×10^6) suspended in serum-free media containing 50% Matrigel was subcutaneously administered in the right flank of mice, respectively. The tumor volumes (V) were calculated using a caliper and the standard equation: V (mm^3)=0.52 (ab^2) (a=length, b=width). Once the tumor reached 100-200 mm^3, the mice were randomly divided into different groups and subcutaneously injected with a vehicle or each peptide every day.
To investigate the anticancer effect of HS1002, the present inventors observed the volume of cancer cells after transplanting the cancer cells into experimental animals. Specifically, mice (4-week-old male BALB/c nude mice; Central Lab. Animal Inc., Seoul, Korea) were prepared, and tumor cells (1×10^7 LNCaP cells) suspended in 1 mL of a serum-free medium containing 50% Matrigel were percutaneously injected into the upper flank of each nude mouse. When the tumor cell volume reached about 200 mm^3, the mice were randomly assigned to a vehicle control group, a leuprolide acetate-treated group, and test groups (GV1001-treated group and HS1002-treated group), respectively. Leuprolide acetate (0.1 mg/kg/day) and GV1001 and HS1002 (1 mg/kg/day) were injected subcutaneously for 13 days.

[2] = system: Ki-67 and hTERT in LNCaP tumor tissue; assay: Ki-67 immunohistochemistry and hTERT immunoblotting in xenograft tumor tissue (FIG. 18); format: in vivo, mouse; conditions: s.c. administration, compared with the control group
Method: Mice were sacrificed, and the excised tumors were fixed in 10% formalin and impregnated with paraffin. For pathological examination, immunohistochemistry was performed by the avidin-biotin complex method using Ki-67 antibodies. The immune response was visualized with a reagent (3,3-diaminobenzidine) and counter-stained with Mayer's hematoxylin. TUNEL assay in tissue was performed using ApopTag Plus Peroxidase in Situ Apoptosis Detection kits (Intergen, Purchase, NY)) according to the manufacturer's indications. In summary, paraffin was removed from slides, and the slides were placed in 3% hydrogen peroxide to inhibit endogenous peroxidase. The slides were incubated in a reaction buffer containing an enzyme (terminal deoxynucleotidyl transferase) at 37° C. for 1 h. The slides were incubated with peroxidase-conjugated anti-digoxigenin antibodies for 30 min, and the reaction product was visualized with a solution containing 2 mmol hydrogen peroxide (0.03% 3,3-diaminobenzidine solution). Counterstaining was performed with 0.5% methyl green. Ki-67- and TUNEL-positive cells were counted and expressed as an average of the five highest areas within a single×200 field. A portion of tumor tissue was homogenized, followed by immunoblotting for hTERT.

[3] = system: tumor-infiltrating CD45+ and CD8+ cells in MC38 tumor; assay: Flow cytometry of tumor infiltrating leukocytes in MC38 tumors (FIG. 20); format: in vivo, mouse; conditions: MC38 tumor tissue, vs vehicle
Text: A mouse tumor dissociation kit (Cat. 130-096-730, Miltenyi Biotec, Bergisch Gladbach, Germany) was used for tumor digestion according to the manufacturer's protocol. Briefly, the tumor was cut into small fragments with RPMI 1640 containing enzymes D, R, and A. After filtration through a 70 μm cell strainer, red blood cells were removed using RBC lysis buffer (Cat. 420301, BioLegend, San Diego, CA, USA). The acquired single-cell suspension was used for further analysis. For analysis of intracellular cytokines, the cell suspension was incubated in the presence of a cell stimulation cocktail (with a protein transport inhibitor) (Cat. 00-4975-93, Invitrogen, eBioscience) for 5 h and subjected to fixation and permeabilization using an intracellular fixation and permeabilization buffer set (Cat. 88-8824-00, Thermo Fisher) according to the manufacturer's protocol. Following the staining process, samples were analyzed with Novocyte (ACEA Biosciences, San Diego, CA, USA).
CTLs are the key mediators of granzyme- and perforin-mediated cancer cell destruction during cancer immunosurveillance and immunotherapy. […] To investigate the effect of HS1002 on tumor-infiltrating CD8^+ T cells in MC38 tumor tissue, flow cytometric analysis was used. Flow cytometric analysis confirmed that HS1002 elevated the total number of tumor-infiltrating CD45+ cells and the production of granzyme B and IFN-γ in CD8^+ cells and in MC38 tumor tissue (FIG. 20A). To assess the effect of HS1002 on immune response-related gene expression in a syngeneic mouse model, gene expression analysis was conducted by profiling the transcriptomes of the tumor. A total of 49,196 genes were analyzed in tumor tissues, and genes with a fold change exceeding 1.5 were included for further analysis with statistical significance at p<0.05.

SMILES: CCNC(=O)[C@@H]1CCCN1C(=O)[C@@H](NC(=O)[C@H](Cc1ccccc1)NC(=O)[C@H](CCCNC(=N)N)NC(=O)[C@H](CC(C)C)NC(=O)[C@H](CCCNC(=N)N)NC(=O)[C@H](Cc1ccc(O)cc1)NC(=O)[C@H](CO)NC(=O)[C@H](Cc1c[nH]c2ccccc12)NC(=O)[C@H](Cc1c[nH]cn1)NC(=O)[C@@H]1CCC(=O)N1)[C@@H](C)CC [HS1002]
- Cytotoxicity (IC50) DU145 (DU145): 5.23 ± 0.65 mg/L
- Cytotoxicity (IC50) PC3 (PC3): 7.56 ± 0.61 mg/L
- expression of c-Myc in tumor tissue [1]: significantly downregulated
- expression of p-AKT in tumor tissue [1]: significantly downregulated
- expression of p-ERK1/2 in tumor tissue [1]: significantly downregulated
- Ki-67 protein expression level in tumor tissues [2]: distinctively reduced
- hTERT protein expression level in tumor tissues [2]: distinctively reduced
- production of IFN-γ in CD8+ cells [3]: elevated
- production of granzyme B in CD8+ cells [3]: elevated
- total number of tumor-infiltrating CD45+ cells [3]: elevated
